Data: patent EP0100734A1, “Process for the separation or purification of a sleep promoting factor from a biological source by immunological reaction of the antigen-antibody kind” (ANVAR Agence Nationale de Valorisation de la Recherche, priority 1982, dated 1984)

System: anticorps monoclonaux anti-MDP
Experiment: Competitive ELISA: inhibition of binding of MDP-lysine-peroxidase conjugate to captured monoclonal anti-MDP antibody
Parameters: species or system souris
Experimental: On a recours à la technique antérieurement. décrite dans l'article de BAHR et Coll. déjà mentionné, sous réserve de quelques modifications de détail. Les éléments essentiels de la méthodologie utilisée sont rappelés ci-après.
Les puits de plaques micro-ELISA (commercialisées par la société DYNATECH) sont tapissés avec des fractions Ig d'anticorps de chèvre anti-souris IgM, IgA ou IgG, par maintien en contact avec leurs parois d'une solution contenant 5 ug/ml de la fraction Ig pendant 3 heures à 4°C. Après lavage de la plaque avec une solution de PBS contenant 0,05 % de l'agent de dispersion commercialisé sous la dénomination TWEEN 20, on ajoute des dilutions des surnageants d'hybridomes producteurs d'anticorps anti-MDP aux différents puits et on incube pendant 2 heures à la température ambiante. Les fractions Ig facilitent la retenue des anticorps anti-MDP. Les plaques sont ensuite lavées et une solution de MDP-lysine couplé à de la péroxydase de raifort diluée au 1/1000 est ajoutée aux puits. Les plaques sont ensuite laissées au repos pendant la nuit à 4°C. Après lavage, on détermine les proportions de MDP-lysine-péroxydase fixées dans les puits, en mettant en oeuvre l'ortho-phénylène-diamine et de l'eau oxygénée en tant que substrat de la péroxydase. […]

CC(=O)N[C@H]1C(O)O[C@H](CO)[C@@H](O)[C@@H]1O[C@H](C)C(=O)N[C@H](C)C(=O)N[C@H](CCC(=O)O)C(N)=O (stereo partly drawn) [MDP-DD, N-acétyl- muramyl- D-alanyl-D-isoglutamine]
inhibition (added under the same conditions together with the conjugate, amount not stated): aucune inhibition

CC(=O)N[C@H]1C(O)O[C@H](CO)[C@@H](O)[C@@H]1O[C@H](C)C(=O)N[C@@H](C)C(=O)N[C@H](CCC(=O)O)C(N)=O (stereo partly drawn) [MDP, M-acétyl-muramyl-L-alanyl-D-isoglutamine]
inhibitions exprimées par des activités (100 µl of MDP solution containing 100 ng, added together with MDP-peroxidase conjugate (1/1000), antibody diluted 1/100 = 100 % activity): 31%
